The text below walks through data of US20250154141A1 (University of Florida Research Foundation, Incorporated, priority 2021, published 2025).

As a reminder, the IC50 is the concentration that inhibits the measured activity by half.

Read-outs that look alike come from different tables or passages of the source.

What all share (format): cell-based
For one assay, the system named is RS4; 11. Nature of the assay: Cell viability assay (MTS) in RS4; 11 cells. The protocol: (§1) Acute lymphoblastic leukemia cells (MOLT-4 and RS4; 11) were incubated with increasing concentrations of Bcl-xL degraders for 48 h. Cell viability was measured by tetrazolium-based MTS assay.
For another assay, the system named is human platelets. Kind of assay: Platelet toxicity assay (MTS viability). As to conditions: for IC50: 48 h, human platelets; for Platelets/MOLT-4 IC50 Fold change / PLT/MOLT-4 IC50 Fold Change: ratio of platelet IC50 to MOLT-4 IC50. The protocol: Platelet-rich plasma (PRP) was purchased from Life South Community Blood Centers (Gainesville, FL, USA). PRP was transferred into a 50 mL tube containing 5 mL of the acid citrate buffer (Cat. No. sc-214744, Santa Cruz Biotechnology). To prevent clotting, prostaglandin E1 (PGE1, Cat. No. sc-201223A, Santa Cruz Biotechnology, Dallas, TX, USA) and apyrase (Cat. No. A6237, Sigma-Aldrich, St. Louis, MO, USA) were added to final concentrations of […] and 0.2 U/mL, respectively. After gently mixing the solution, platelets were pelleted by centrifugation at 1200 g for 10 min without break. Pelleted platelets were gently washed without disturbing platelets using 2 mL of HEPES Tyrode's buffer (Cat. No. PY-921WB, Boston BioProducts, Ashland, MA, USA) containing […] PGE1 and 0.2 U/mL apyrase. After washing, pellets were gently suspended in 10 mL of HEPES Tyrode's buffer containing […] PGE1 and 0.2 U/mL apyrase. Then, the platelet number was counted using a HEMAVET 950FS hematology analyzer (Drew Scientific, Inc., Oxford, CT, USA). For viability assays, the platelet number was adjusted to 2×10^8/mL in HEPES Tyrode's buffer containing […] PGE1 and 0.2 U/mL apyrase. Each treatment was given in 2 mL of the platelet suspension in 15 mL polypropylene tubes. The tubes were placed on a rotating platform at room temperature, and the viability of platelets was measured after 48 h treatment by using the MTS reagent (Cat. No. G1111, Promega, Madison, WI, USA). The data were analyzed by the GraphPad Prism 7 software for the calculation of IC50 values.

For the next assay, the system named is MOLT-4. Kind of assay: Cell viability assay (MTS) in MOLT-4 cells. As to the method:
as §1

[1] abbreviates: Homo sapiens, RS4-11, Table 2, 48 hr, MTS, read-out: Anti-Cancer Activity IC50 (48 hr) RS4, 11.
The mark [2] stands for this setting: Homo sapiens, RS4-11, Table 4, 48 h, read-out: RS4 48 h IC50.
Setting [3] is: Homo sapiens, Platelet, Table 4, read-out: Platelets 48 h IC50.
Where [4] appears, read: Homo sapiens, MOLT-4, Table 2, 48 hr, MTS, read-out: Anti-Cancer Activity IC50 (48 hr) MOLT-4.
Where [5] appears, read: Homo sapiens, MOLT-4, Table 4, 48 h, read-out: MOLT-4 48 h IC50.

In the case of `Cc1ncsc1-c1ccc([C@H](C)NC(=O)[C@@H]2C[C@@H](O)CN2C(=O)[C@@H](NC(=O)CCCCCCC(=O)N2CCN(C[C@]3(C)CCC(c4ccc(Cl)cc4)=C(CN4CCN(c5ccc(C(=O)NS(=O)(=O)c6ccc(N[C@H](CCN7C[C@H]8C[C@@H]7CO8)CSc7ccccc7)c(S(=O)(=O)C(F)(F)F)c6)cc5)CC4)C3)CC2)C(C)(C)C)cc1` [Compound 66], the IC50 with RS4; 11 (setting [1]) is less than 20 nM; in the assay with RS4; 11 (setting [2]), 1.6 nM; in the assay with human platelets (Homo sapiens, Platelet, Table 3, mean of two independent experiments in triplicates, read-out: Platelets 48 h IC50), 853 nM; in the assay with human platelets (setting [3]) it was 853 nM; in the assay with human platelets (Homo sapiens, Platelet, Table 6, 4 th time, read-out: Platelets 4 th time 48 h IC50) it was 853 nM; with MOLT-4 (setting [4]), less than 20 nM. In addition, the IC50 in the assay on MOLT-4 (Homo sapiens, MOLT-4, Table 3, 48 h, mean of two independent experiments in triplicates, read-out: MOLT-4 48 h IC50) is 2.3 nM. Also, the “Platelets/MOLT-4 IC50 Fold change” value with human platelets (Table 3) and in the assay with human platelets (Table 6) was 370 each time. Also, the “PLT/MOLT-4 IC50 Fold Change” value in the assay on human platelets (Table 4) is reported as 370.

Take `Cc1ncsc1-c1ccc([C@H](C)NC(=O)[C@@H]2C[C@@H](O)CN2C(=O)[C@@H](NC(=O)CCCCC(=O)N2CCC(C3CCN(CC4(C)CCC(c5ccc(Cl)cc5)=C(CN5CCN(c6ccc(C(=O)NS(=O)(=O)c7ccc(N[C@H](CCN8C[C@H]9C[C@@H]8CO9)CSc8ccccc8)c(S(=O)(=O)C(F)(F)F)c7)cc6)CC5)C4)CC3)CC2)C(C)(C)C)cc1` (some centres unmarked) [Compound 69]: the concentration for half-maximal inhibition (IC50) with RS4; 11 (setting [1]) was less than 20 nM; in the assay with RS4; 11 (Homo sapiens, RS4-11, Table 5, 48 h, read-out: RS4 48 h IC50), 3.7 nM; with human platelets (Homo sapiens, Platelet, Table 5, read-out: Platelets 48 h IC50), 157 nM; in the assay with MOLT-4 (setting [4]), less than 20 nM; in the assay on MOLT-4 (Homo sapiens, MOLT-4, Table 5, 48 h, read-out: MOLT-4 48 h IC50), 1.9 nM.

As to `Cc1ncsc1-c1ccc([C@H](C)NC(=O)[C@@H]2C[C@@H](O)CN2C(=O)[C@@H](NC(=O)CN2CCN(CC(=O)N3CCN(C[C@]4(C)CCC(c5ccc(Cl)cc5)=C(CN5CCN(c6ccc(C(=O)NS(=O)(=O)c7ccc(N[C@H](CCN8C[C@H]9C[C@@H]8CO9)CSc8ccccc8)c(S(=O)(=O)C(F)(F)F)c7)cc6)CC5)C4)CC3)CC2)C(C)(C)C)cc1` [Compound 105], the IC50 with RS4; 11 (Homo sapiens, RS4-11, 48 h, read-out: Anti-Cancer Activity IC50 (48 hr) RS4, 11) was less than 20 nM; with RS4; 11 (Homo sapiens, RS4-11, 48 h, read-out: RS4 48 h IC50) it was 3 nM; with human platelets (Platelet, Table 4, read-out: Platelets 48 h IC50), 777 nM; with MOLT-4 (Homo sapiens, MOLT-4, 48 h, read-out: Anti-Cancer Activity IC50 (48 hr) MOLT-4), less than 20 nM; with MOLT-4 (Homo sapiens, MOLT-4, 48 h, read-out: MOLT-4 48 h IC50), 4 nM.

With `Cc1ncsc1-c1ccc([C@H](C)NC(=O)[C@@H]2C[C@@H](O)CN2C(=O)[C@@H](NC(=O)CCCCCC(=O)N2CCN(CC[C@H](CSc3ccccc3)Nc3ccc(S(=O)(=O)NC(=O)c4ccc(N5CCN(CC6=C(c7ccc(Cl)cc7)CCC(C)(C)C6)CC5)cc4)cc3S(=O)(=O)C(F)(F)F)CC2)C(C)(C)C)cc1` [DT2216, reference compound], the IC50 was 180 to 230 nM in the assay on RS4; 11 (Table 4, 48 h, read-out: RS4 48 h IC50); more than 10000 nM with human platelets (Table 4, read-out: Platelets 48 h IC50); 50 to 80 nM in the assay on MOLT-4 (Table 4, 48 h, read-out: MOLT-4 48 h IC50). Besides, the “PLT/MOLT-4 IC50 Fold Change” value with human platelets (Table 4) is on record as more than 150.

Consider `Cc1ncsc1-c1ccc([C@H](C)NC(=O)[C@@H]2C[C@@H](O)CN2C(=O)[C@@H](NC(=O)CCCCCCC(=O)N2CCN(CC3(C)CCC(c4ccc(Cl)cc4)=C(CN4CCN(c5ccc(C(=O)NS(=O)(=O)c6ccc(N[C@H](CCN7CCOCC7)CSc7ccccc7)c(S(=O)(=O)C(F)(F)F)c6)cc5)CC4)C3)CC2)C(C)(C)C)cc1` (some centres unmarked) [PP18319C8], for which the IC50 in the assay with RS4; 11 (setting [2]) was found to be 18.7 nM; with human platelets (setting [3]) it was 1640 nM; with MOLT-4 (setting [5]), 17.4 nM. Further, the “PLT/MOLT-4 IC50 Fold Change” value in the assay on human platelets (Table 4) was 94.

Take `Cc1ncsc1-c1ccc([C@H](C)NC(=O)[C@@H]2C[C@@H](O)CN2C(=O)[C@@H](NC(=O)CCCCCCC(=O)N2CCN(C[C@]3(C)CCC(c4ccc(Cl)cc4)=C(CN4CCN(c5ccc(C(=O)NS(=O)(=O)c6ccc(N[C@H](CCN7CCOCC7)CSc7ccccc7)c(S(=O)(=O)C(F)(F)F)c6)cc5)CC4)C3)CC2)C(C)(C)C)cc1` [PZ753B, reference compound]: the IC50 in the assay with RS4; 11 (setting [2]) is 5.8 nM; in the assay on human platelets (setting [3]), 1050 nM; in the assay with MOLT-4 (setting [5]), 6.9 nM. For the same compound, the “PLT/MOLT-4 IC50 Fold Change” value in the assay on human platelets (Table 4) was found to be 152.
